For assay [1], the target named is T1, BRD9 (Homo sapiens, UniProt Q9H8M2).
T1 sequence (Q9H8M2 1-597): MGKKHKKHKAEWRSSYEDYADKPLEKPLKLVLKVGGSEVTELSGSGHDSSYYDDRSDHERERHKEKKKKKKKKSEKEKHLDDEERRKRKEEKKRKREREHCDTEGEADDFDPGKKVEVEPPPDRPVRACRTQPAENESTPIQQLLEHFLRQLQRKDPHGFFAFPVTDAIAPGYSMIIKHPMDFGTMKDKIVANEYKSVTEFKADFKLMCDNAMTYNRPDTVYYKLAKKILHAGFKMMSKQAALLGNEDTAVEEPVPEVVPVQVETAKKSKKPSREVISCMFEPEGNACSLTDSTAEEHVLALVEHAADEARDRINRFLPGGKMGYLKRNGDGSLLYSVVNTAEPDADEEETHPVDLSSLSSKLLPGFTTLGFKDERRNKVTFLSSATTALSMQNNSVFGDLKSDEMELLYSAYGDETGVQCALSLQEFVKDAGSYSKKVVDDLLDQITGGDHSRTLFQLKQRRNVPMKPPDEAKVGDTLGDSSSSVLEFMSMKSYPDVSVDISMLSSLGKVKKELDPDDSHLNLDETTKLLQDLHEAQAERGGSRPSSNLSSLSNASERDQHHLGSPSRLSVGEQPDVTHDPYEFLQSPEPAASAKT
The experiment in a line: BRD9 degradation, HiBiT-BRD9 KI HEK293 (LgBiT) cells, NanoGlo Lytic Endpoint assay (Assay Protocol 1). Format: cell-based. As to conditions: BRD9 degradation; for Dmax / Dmax at 1 µM: HEK293; for Dmax: read-out: Dmax; for Dmax at 1 µM: 1 μM compound at 6 h of treatment, read-out: Assay 1 Dmax. Summed up:
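HiBiT-tagged BRD9 knock-in HEK293 (LgBiT) cells exposed to compounds for 6 h at 37 °C, 5% CO2. Residual BRD9 measured by HiBiT lytic luminescence. % BRD9 remaining normalised to DMSO-treated cells (high) and no-cell wells (low).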
For orientation: With HiBiT, luminescence reflects the tagged protein that the partner subunit can reach.

Assay [2] has as its target T1, BRD9. The experiment in a line: Degradation of BRD9 (IF), immunofluorescence in MV4-11 cells, 24 hours (Assay Protocol 2). Format: cell-based. Also noted: A suspension of MV4-11 cells (ATCC CRL-9591) was prepared; host or cells: MV4-11. Put shortly: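 MV4-11 cells treated with compound 24 h at 37° C., then fixed, permeabilised and immunostained for BRD9 (anti-BRD9 E4Q3F, Alexa 647 secondary, Hoechst counterstain). High-content imaging quantified nuclear BRD9 signal; % BRD9 remaining normalised to DMSO and 100 nM CFT-8634 controls.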

Setting [3] is: Assay protocol 1, read-out: DC50.
The mark [4] stands for this setting: Assay protocol 2, BRD9 degradation, read-out: DC50.
Setting [5] is: MV4-11, Assay protocol 2, BRD9 degradation, read-out: Dmax.
[6] abbreviates: Table 2, Assay Protocol 1, 6 h of treatment, read-out: Assay 1 DC50.
Where [7] appears, read: MV4-11, 24 h, Table 2, BRD9 degradation (IF), Assay Protocol 2, MV4-11 cells, read-out: Assay 2 DCmax.
The mark [8] stands for this setting: Table 2, BRD9 degradation (IF), Assay Protocol 2, MV4-11 cells, read-out: Assay 2 DC50.

For orientation: DC50 means the concentration at which degradation of the target reaches its halfway point.

Structures are written as SMILES.

On to `COc1cc(-c2cn(C)c(=O)c(C)c2C)ccc1OC1CCN(Cc2cccc3c2CCN(C(=O)/C(C#N)=C/C(C)(C)C)C3C)CC1` (mixture of isomers) [Compound B127, (E/Z)-2-(5-((4-(2-methoxy-4-(1,4,5-trimethyl-6-oxo-1,6-dihydropyridin-3-yl)phenoxy)piperidin-1-yl)methyl)-1-methyl-1,2,3,4-tetrahydroisoquinoline-2-carbonyl)-4,4-dimethylpent-2-enenitrile], for which the 50% degradation concentration (DC50) at BRD9 [1] (setting [3]) and at BRD9 [2] (setting [4]) was 1.25 to 10 nM each time. Besides, the Dmax at BRD9 [1] (Assay protocol 1) and at BRD9 [2] (setting [5]) was over 75% each time.
On to `CCCC(c1ccc(C(=O)N(C)CCCCC(=O)N2CCN(Cc3c(OC)cc(-c4cn(C)c(=O)c(C)c4C)cc3OC)CC2)cc1)N(C)C(=O)/C(C#N)=C/c1nccs1` (mixture of isomers) [Compound B181, (E/Z)-4-(1-(2-cyano-N-methyl-3-(thiazol-2-yl)acrylamido)butyl)-N-(5-(4-(2,6-dimethoxy-4-(1,4,5-trimethyl-6-oxo-1,6-dihydropyridin-3-yl)benzyl)piperazin-1-yl)-5-oxopentyl)-N-methylbenzamide], for which the Dmax at BRD9 [1] (Assay protocol 1) and at BRD9 [2] (setting [5]) was 40 to 70% in each case. For the same compound, the DC50 on BRD9 [2] (setting [4]) fell in the range of 10 to 25 nM.
Consider `CCCC(c1ccc(C(=O)N(C)CCCCCCC(=O)N2CCN(Cc3c(OC)cc(-c4cn(C)c(=O)c(C)c4C)cc3OC)CC2)cc1)N(C)C(=O)/C(C#N)=C/c1nccs1` (mixture of isomers) [Compound B182, (E/Z)-4-(1-(2-cyano-N-methyl-3-(thiazol-2-yl)acrylamido)butyl)-N-(7-(4-(2,6-dimethoxy-4-(1,4,5-trimethyl-6-oxo-1,6-dihydropyridin-3-yl)benzyl)piperazin-1-yl)-7-oxoheptyl)-N-methylbenzamide], for which the DC50 fell in the range of 25 to 1000 nM at BRD9 [1] (setting [3]) and 1.25 to 10 nM at BRD9 [2] (setting [4]). Besides, the Dmax at BRD9 [1] (Assay protocol 1) and on BRD9 [2] (setting [5]) was 40 to 70% throughout.
For `CCCC(c1ccc(C(=O)N(C)CCCCCCCCC(=O)N2CCN(Cc3c(OC)cc(-c4cn(C)c(=O)c(C)c4C)cc3OC)CC2)cc1)N(C)C(=O)/C(C#N)=C/c1nccs1` (mixture of isomers) [Compound B183, (E/Z)-4-(1-(2-cyano-N-methyl-3-(thiazol-2-yl)acrylamido)butyl)-N-(9-(4-(2,6-dimethoxy-4-(1,4,5-trimethyl-6-oxo-1,6-dihydropyridin-3-yl)benzyl)piperazin-1-yl)-9-oxononyl)-N-methylbenzamide], the DC50 at BRD9 [1] (setting [3]) was 25 to 1000 nM; at BRD9 [2] (setting [4]) it was 1.25 to 10 nM. The Dmax at BRD9 [1] (Assay protocol 1) is 40 to 70%; at BRD9 [2] (setting [5]) it was over 75%.
As to `CCCC(c1cccc(C(=O)N2CCN(Cc3c(OC)cc(-c4cn(C)c(=O)c(C)c4C)cc3OC)CC2)c1)N(C)C(=O)/C(C#N)=C/c1nccs1` (mixture of isomers) [Compound B184, (E/Z)-2-cyano-N-(1-(3-(4-(2,6-dimethoxy-4-(1,4,5-trimethyl-6-oxo-1,6-dihydropyridin-3-yl)benzyl)piperazine-1-carbonyl)phenyl)butyl)-N-methyl-3-(thiazol-2-yl)acrylamide], the Dmax on BRD9 [1] (Assay protocol 1) and at BRD9 [2] (setting [5]) was 40 to 70% in each case. For the same compound, the DC50 on BRD9 [2] (setting [4]) is 1.25 to 10 nM.
As to `CCCC(c1cccc(CCC(=O)N2CCN(Cc3c(OC)cc(-c4cn(C)c(=O)c(C)c4C)cc3OC)CC2)c1)N(C)C(=O)/C(C#N)=C/c1nccs1` (mixture of isomers) [Compound B185, (E/Z)-2-cyano-N-(1-(3-(3-(4-(2,6-dimethoxy-4-(1,4,5-trimethyl-6-oxo-1,6-dihydropyridin-3-yl)benzyl)piperazin-1-yl)-3-oxopropyl)phenyl)butyl)-N-methy-3-(thiazol-2-yl)acrylamide], the DC50 was 10 to 25 nM at BRD9 [1] (setting [3]) and 1.25 to 10 nM at BRD9 [2] (setting [4]). The Dmax is 40 to 70% on BRD9 [1] (Assay protocol 1) and over 75% at BRD9 [2] (setting [5]).
In the same order, the values of `CCCC(c1ccccc1CCC(=O)N1CCN(Cc2c(OC)cc(-c3cn(C)c(=O)c(C)c3C)cc2OC)CC1)N(C)C(=O)/C(C#N)=C/c1nccs1` (mixture of isomers) [Compound B186, (E/Z)-2-cyano-N-(1-(2-(3-(4-(2,6-dimethoxy-4-(1,4,5-trimethyl-6-oxo-1,6-dihydropyridin-3-yl)benzyl)piperazin-1-yl)-3-oxopropyl)phenyl)butyl)-N-methyl-3-(thiazol-2-yl)acrylamide] are 1.25 to 10 nM, under 1.25 nM, over 75% and over 75%.
With `COc1cc(-c2cn(C)c(=O)c(C)c2C)cc(OC)c1CN(C)C1CCN(C(=O)/C(C#N)=C/C23CC(C2)C3)CC1` (mixture of isomers) [Compound B187, (E/Z)-3-(bicyclo[1.1.1]pentan-1-yl)-2-(4-((2,6-dimethoxy-4-(1,4,5-trimethyl-6-oxo-1,6-dihydropyridin-3-yl)benzyl)(methyl)amino)piperidine-1-carbonyl)acrylonitrile], the DC50 on BRD9 [1] (setting [3]) and on BRD9 [2] (setting [4]) was 1.25 to 10 nM each time. Besides, the Dmax at BRD9 [1] (Assay protocol 1) and on BRD9 [2] (setting [5]) was over 75% in each case.
On to `COc1cc(-c2cn(C)c(=O)c(C)c2C)cc(OC)c1CN1CCN(Cc2cccc3c2CCN(C(=O)/C(C#N)=C/C2(C)CC2)C3C)CC1` (mixture of isomers) [Compound C27, (E/Z)-2-(5-((4-(2,6-dimethoxy-4-(1,4,5-trimethyl-6-oxo-1,6-dihydropyridin-3-yl)benzyl)piperazin-1-yl)methyl)-1-methyl-1,2,3,4-tetrahydroisoquinoline-2-carbonyl)-3-(1-methylcyclopropyl)acrylonitrile], for which the DC50 at BRD9 [1] (setting [3]) and at BRD9 [2] (setting [4]) was over 1000 nM in each case. The Dmax on BRD9 [1] (Assay protocol 1) and on BRD9 [2] (setting [5]) was 40 to 70% in each case.
With `COc1cc(-c2cn(C)c(=O)c3cnccc23)cc(OC)c1CN1CCN(Cc2cccc3c2CCN(C(=O)/C(C#N)=C/c2nccs2)[C@@H]3C)CC1` (single isomer, unassigned) [Compound A14, (E/Z)-2-(5-((4-(2,6-dimethoxy-4-(2-methyl-1-oxo-1,2-dihydro-2,7-naphthyridin-4-yl)benzyl)piperazin-1-yl)methyl)-1-methyl-1,2,3,4-tetrahydroisoquinoline-2-carbonyl)-3-(thiazol-2-yl)acrylonitrile], the Dmax at 1 µM on BRD9 [1] (Table 2, Assay Protocol 1) is 40 to 70%. The 50% degradation concentration (DC50) on BRD9 [1] (setting [6]) and on BRD9 [2] (setting [8]) was under 1.25 nM each time. In addition, the Dmax at BRD9 [2] (setting [7]) was in the range of 40 to 70%.
With `COc1cc(-c2cn(C)c(=O)c3cnccc23)cc(OC)c1CN1CCN(Cc2cccc3c2CCN(C(=O)/C(C#N)=C/c2nccs2)[C@H]3C)CC1` (single isomer, unassigned) [Compound A15], the Dmax at 1 µM at BRD9 [1] (Table 2, Assay Protocol 1) was in the range of 40 to 70%. Moreover, the DC50 was 1.25 to 10 nM at BRD9 [1] (setting [6]) and under 1.25 nM at BRD9 [2] (setting [8]). In addition, the Dmax on BRD9 [2] (setting [7]) was 40 to 70%.
`COc1cc(-c2cn(C)c(=O)c3cnccc23)cc(OC)c1CN1CCN(Cc2cccc3c2CCN(C(=O)/C(C#N)=C/C(C)(C)C)[C@@H]3C)CC1` (single isomer, unassigned) [Compound A25, (E/Z)-2-(5-((4-(2,6-dimethoxy-4-(2-methyl-1-oxo-1,2-dihydro-2,7-naphthyridin-4-yl)benzyl)piperazin-1-yl)methyl)-1-methyl-1,2,3,4-tetrahydroisoquinoline-2-carbonyl)-4,4-dimethylpent-2-enenitrile]: the Dmax at 1 µM on BRD9 [1] (Table 2, Assay Protocol 1) is 40 to 70%. For the same compound, the half-maximal degradation concentration (DC50) at BRD9 [1] (setting [6]) is under 1.25 nM. Further, on BRD9 [2] (setting [7]), the Dmax lay within 40 to 70%.
In the case of `COc1cc(-c2cn(C)c(=O)c(C)c2C)cc(OC)c1CN1CCCN(Cc2cccc3c2CCN(C(=O)/C(C#N)=C/C2(F)CC2)C3C)CC1` (single isomer, unassigned) [Compound A69, (E/Z)-2-(5-((4-(2,6-dimethoxy-4-(1,4,5-trimethyl-6-oxo-1,6-dihydropyridin-3-yl)benzyl)-1,4-diazepan-1-yl)methyl)-1-methyl-1,2,3,4-tetrahydroisoquinoline-2-carbonyl)-3-(1-fluorocyclopropyl)acrylonitrile], at BRD9 [1] (Table 2, Assay Protocol 1), the Dmax at 1 µM was over 75%. For the same compound, the DC50 at BRD9 [1] (setting [6]) fell in the range of 1.25 to 10 nM; at BRD9 [2] (setting [8]) it was 25 to 300 nM. Besides, the Dmax on BRD9 [2] (setting [7]) is 40 to 70%.
